Laboratory results from publication PMC10609996, “The Toxicological Assessment of Anoectochilus burmannicus Ethanolic-Extract-Synthesized Selenium Nanoparticles Using Cell Culture, Bacteria, and Drosophila melanogaster as Suitable Models” (Nanomaterials, 2023).
Where “and” joins values, the source holds several entries; their conditions need not be identical. Identical values can stand only once.

Columns and labels:
[1] = tested on: Salmonella typhimurium TA 98; assay: Ames test, mutagenicity, TA 98
Procedure: (§1) 2-aminoanthracene (2-AA) and 2-(2-furyl)-3-(5-nitro-2-furyl)-acrylamide (AF-2) standard mutagens were used as positive control. 2-AA was used in the presence of S9 mixture, while AF-2 was used without the S9 mixture. Deionized water (DI) and DMSO were used as negative controls for the samples and mutagens, respectively. The mixture solution was poured onto the minimal histidine agar and then incubated at 37 °C for 48 h. The revertant colonies formed on the agar plate were scored.
(§2) Three plates were investigated per dose in two independent experiments for both mutagenicity and antimutagenicity tests.

[2] = tested on: Salmonella typhimurium TA 100; assay: Ames test, mutagenicity, TA 100
Procedure: as §1, §2

[3] = tested on: Salmonella typhimurium TA 98; assay: Ames test, anti-mutagenicity, TA 98; type: cell-based
[4] = tested on: Salmonella typhimurium TA 100; assay: Ames test, anti-mutagenicity, TA 100; type: cell-based
Procedure: The antimutagenicity was indicated based on percentage inhibition which was calculated as in the following equation:Antimutagenicity (%) = [1 − (b/a)] × 100
(§3) • a = revertant colony number induced via standard mutagen (positive control) • b = revertant colony number induced by standard mutagen in the presence of each sample treatment

Drosophila melanogaster [5] = assay: SMART (wing spot test), anti-mutagenicity; conditions: mutagen alone, 1 mM
Procedure: The wing spots were scored as mentioned above. The percentage of anti-mutagenicity of the nanoparticles (% inhibition) was calculated as in the following equation:Antimutagenicity (%) = [(a − b)/a] × 100
• a = number of total spots per wing of positive mutagen control group • b = number of total spots per wing of each experimental group

LX-2 = assay: Cytotoxic assay (MTT) in LX-2; type: cell-based, human; conditions: LX-2, MTT
Procedure: (§4) Cell viability (%) = (Absorbance (sample))/(Absorbance (control)) × 100 […]
(§5) Cell proliferation was determined using an MTT assay at indicated time.
(§6) The solution was gently removed, then the crystal was dissolved by dimethyl sulfoxide (DMSO). The cell viability is directly related to the […]
(§7) to a decrease in cell numbers. […]
(§8) the starting point (0 h) (B-E).

hRBCs = assay: Hemolysis assay
Procedure: (§9) Human blood samples of healthy subjects were obtained from Maharaj Hospital, Chiang Mai, Thailand, which were anonymized by the laboratory and kept in a heparinized tube. […] The remaining RBCs were used in a hemolysis assay. […] Consent to participate was not applicable because of anonymous data collection. All methods were carried out following relevant guidelines and regulations.
Human RBCs were collected after the separation of hPBMCs from whole blood. The 5% RBCs suspension then was mixed with several concentrations of the various forms of selenium and incubated at 37 °C for three hours. […] Hemoglobin released by damaged cells can be used as a marker of red blood cell lysis following test agent exposure and can notice as a red-color solution that can be measured for absorbance using spectrophotometry. Triton X-100 was used as a positive control.

hPBMCs = assay: Cytotoxicity on hPBMCs (SRB assay); conditions: at up to 16 µM of Se
Procedure: as §9

3T3-L1 = assay: Cytotoxic assay (MTT) in 3T3-L1; conditions: at up to 16 µM
HEK-293 = assay: Cytotoxic assay (MTT) in HEK-293; type: cell-based, human; conditions: HEK-293, MTT
Procedure: as §4, §5, §6, §7, §8

MRC-5 = assay: Cytotoxic assay (MTT) in MRC-5; type: cell-based, human; conditions: MRC-5, MTT
Procedure: as §4, §5, §6, §7, §8

Caco2 = assay: Cytotoxic assay (MTT) in Caco2; type: cell-based, human
Procedure: as §4, §5, §6, §7, §8

[6] = tested on: Salmonella typhimurium TA 98; assay: Ames test, anti-mutagenicity, TA 98; type: cell-based; conditions: TA 98, +S9, PhIP (0.1 µg/Plate)
Procedure: To determine the antimutagenicity of the samples, 6-phenylimidazo [4,5-b]pyridine (PhIP) and 2-Amino-3-methylimidazo [4,5-f]quinoline (IQ) were used as standard mutagens (positive control) in the test of TA98 and TA100, respectively, in the presence of S9 mixture. The antimutagenicity was indicated based on percentage inhibition which was calculated as in the following equation:Antimutagenicity (%) = [1 − (b/a)] × 100
as §3

Drosophila melanogaster [7] = assay: SMART (wing spot test), mutagenicity; type: in vivo; parameters: key to Statistical diagnosis: Small Single (m = 2) / Statistical diagnosis: Large Single (m = 5) / Statistical diagnosis: Twin (m = 5) / Statistical diagnosis: Total Spots (m = 2): + = positive; − = negative; i = inconclusive; conditions: 20 mM
Procedure: Urethane (20 mM) was used as a mutagen (positive control) and DI was used as a negative control. The larvae were fed on each medium until pupation at 25 °C. Later, the wings of surviving flies were removed for mutant spot analysis. Approximately 40 wings in each group were scored for the presence of mutant spots, including small single spots, large single spots, and twin spots. The results were diagnosed using the estimation of spot frequencies and confidence limits for comparison with the control group, and the statistical significance was calculated as previously described by Frei and Würgler.

[8] = TA 98, −S9, AF-2 (0.1 µg/Plate), 3.12 µM/plate
[9] = TA 98, −S9, AF-2 (0.1 µg/Plate), 6.25 µM/plate
[10] = TA 98, −S9, AF-2 (0.1 µg/Plate), 12.5 µM/plate
[11] = TA 100, +S9, IQ (0.05 µg/Plate), 3.12 µM/plate
[12] = TA 100, +S9, IQ (0.05 µg/Plate), 6.25 µM/plate
[13] = TA 100, +S9, IQ (0.05 µg/Plate), 12.5 µM/plate
[14] = TA 100, −S9, AF-2 (0.01 µg/Plate), 3.12 µM/plate
[15] = TA 100, −S9, AF-2 (0.01 µg/Plate), 6.25 µM/plate
[16] = TA 100, −S9, AF-2 (0.01 µg/Plate), 12.5 µM/plate

Compound: Nc1ccc2cc3ccccc3cc2c1 [2-AA, 2-aminoanthracene]
- Number of Revertant Colonies ([1]; TA 98, +S9, 0.5 µg/plate): 318 ± 24
- Number of Revertant Colonies ([2]; TA 100, +S9, 0.5 µg/plate): 590 ± 38

Compound: NC(=O)C(=Cc1ccc([N+](=O)[O-])o1)c1ccco1 [AF-2, 2-(2-furyl)-3-(5-nitro-2-furyl)-acrylamide]
- Number of Revertant Colonies ([1]; TA 98, −S9, 0.1 µg/plate): 299 ± 20
- Number of Revertant Colonies ([2]; TA 100, −S9, 0.1 µg/plate): 500 ± 73
- Number of Revertant Colonies ([3]; TA 98, −S9, standard mutagen alone, 0.1 µg/Plate): 347 ± 20 (0)
- Number of Revertant Colonies ([4]; TA 100, −S9, standard mutagen alone, 0.01 µg/Plate): 460 ± 36 (0)

Compound: CCOS(C)(=O)=O [EMS, ethyl methanesulfonate]
- Frequency of Mutant Spots Per Individual: Large Single (>2 Cells) (Drosophila melanogaster [5]): 2.850
- Frequency of Mutant Spots Per Individual: Small Single (1–2 Cells) (Drosophila melanogaster [5]): 7.400
- Frequency of Mutant Spots Per Individual: Total Spots (Drosophila melanogaster [5]): 11.300
- Frequency of Mutant Spots Per Individual: Twin Spots (Drosophila melanogaster [5]): 1.050
- Number of Spots: Large Single (>2 Cells) (Drosophila melanogaster [5]): 114
- Number of Spots: Small Single (1–2 Cells) (Drosophila melanogaster [5]): 296
- Number of Spots: Total Spots (Drosophila melanogaster [5]): 452
- Number of Spots: Twin Spots (Drosophila melanogaster [5]): 42
- Statistical diagnosis: Large Single (>2 Cells) (Drosophila melanogaster [5]; vs deionized water): +
- Statistical diagnosis: Small Single (1–2 Cells) (Drosophila melanogaster [5]; vs deionized water): +
- Statistical diagnosis: Total Spots (Drosophila melanogaster [5]; vs deionized water): +
- Statistical diagnosis: Twin Spots (Drosophila melanogaster [5]; vs deionized water): +

Compound: Cn1c(N)nc2c3cccnc3ccc21 [IQ, 2-Amino-3-methylimidazo [4,5-f]quinoline]
- Number of Revertant Colonies ([4]; TA 100, +S9, standard mutagen alone, 0.05 µg/Plate): 490 ± 20 (0)

Compound: O=[Se]([O-])[O-].[Na+].[Na+] [Na2SeO3, sodium selenite]
- effect on cell number (cell proliferation, Supplementary Figure S5) (LX-2; 48 h vs starting point 0 h): killing effect
- IC50 (LX-2; selenium concentration): 11.2 µM
- % Hemolysis (hRBCs; Se concentration 4 µM, 37 °C, three hours): 0.01 ± 0.059%
- % Hemolysis (hRBCs; Se concentration 6.25 µM, 37 °C, three hours): 0.14 ± 0.036%
- % Hemolysis (hRBCs; Se concentration 8 µM, 37 °C, three hours): 0.06 ± 0.024%
- % Hemolysis (hRBCs; Se concentration 50 µM, 37 °C, three hours): 0.08 ± 0.074%
- Number of Revertant Colonies ([1]; TA 98, +S9, 3.12 µM/plate): 25 ± 5
- Number of Revertant Colonies ([1]; TA 98, +S9, 6.25 µM/plate): 26 ± 4
- Number of Revertant Colonies ([1]; TA 98, +S9, 12.5 µM/plate): 27 ± 5
- Number of Revertant Colonies ([1]; TA 98, −S9, 3.12 µM/plate): 22 ± 2
- Number of Revertant Colonies ([1]; TA 98, −S9, 6.25 µM/plate): 21 ± 1
- Number of Revertant Colonies ([1]; TA 98, −S9, 12.5 µM/plate): 23 ± 3
- mutagenicity in Ames test ([1]; TA98 and TA 100, presence or absence of S9 homogenate): neither pro-mutagen nor mutagen
- cell viability of hPBMCs (hPBMCs): not harmful
- Number of Revertant Colonies ([2]; TA 100, +S9, 3.12 µM/plate): 121 ± 8
- Number of Revertant Colonies ([2]; TA 100, +S9, 6.25 µM/plate): 122 ± 11
- Number of Revertant Colonies ([2]; TA 100, +S9, 12.5 µM/plate): 126 ± 7
- Number of Revertant Colonies ([2]; TA 100, −S9, 3.12 µM/plate): 117 ± 7
- Number of Revertant Colonies ([2]; TA 100, −S9, 6.25 µM/plate): 110 ± 4
- Number of Revertant Colonies ([2]; TA 100, −S9, 12.5 µM/plate): 112 ± 7
- toxicity to pre 3T3-L1 (3T3-L1): not toxic
- anti-mutagenic activity in the AF-2-induced mutation model ([3]; TA98, −S9): not observed
- % mutagenic inhibition [3, 8]: 9%
- Number of Revertant Colonies [3, 8]: 315 ± 6
- % mutagenic inhibition [3, 9]: 4%
- Number of Revertant Colonies [3, 9]: 335 ± 24
- % mutagenic inhibition [3, 10]: 5%
- Number of Revertant Colonies [3, 10]: 329 ± 14
- effect on cell number (cell proliferation, Supplementary Figure S5) (HEK-293; 48 h vs starting point 0 h): killing effect
- IC50 (HEK-293; selenium concentration): 9 µM
- effect on cell number (cell proliferation, Supplementary Figure S5) (MRC-5; 48 h vs starting point 0 h): killing effect
- IC50 (MRC-5; selenium concentration): 10.5 µM
- effect on cell number (cell proliferation, Supplementary Figure S5) (Caco2; 48 h vs starting point 0 h): killing effect
- IC50 (Caco2; selenium concentration): 4 µM and ~4 µM
- % mutagenic inhibition [4, 11]: 11%
- Number of Revertant Colonies [4, 11]: 435 ± 24
- % mutagenic inhibition [4, 12]: 18%
- Number of Revertant Colonies [4, 12]: 404 ± 20
- % mutagenic inhibition [4, 13]: 21%
- Number of Revertant Colonies [4, 13]: 385 ± 28
- inhibition of mutagen-induced revertant colonies ([4]; TA100, +S9, IQ, 6.25–12.5 µM/plate): 18–21%
- anti-mutagenic activity in the AF-2-induced mutation model ([4]; TA100, −S9): not observed
- % mutagenic inhibition [4, 14]: −17%
- Number of Revertant Colonies [4, 14]: 541 ± 82
- % mutagenic inhibition [4, 15]: −24%
- Number of Revertant Colonies [4, 15]: 570 ± 40
- % mutagenic inhibition [4, 16]: −30%
- Number of Revertant Colonies [4, 16]: 597 ± 58
- % mutagenic inhibition ([6]; 3.12 µM/plate): 7%
- Number of Revertant Colonies ([6]; 3.12 µM/plate): 341 ± 14
- % mutagenic inhibition ([6]; 6.25 µM/plate): 6%
- Number of Revertant Colonies ([6]; 6.25 µM/plate): 345 ± 9
- % mutagenic inhibition ([6]; 12.5 µM/plate): 10%
- Number of Revertant Colonies ([6]; 12.5 µM/plate): 332 ± 23

Compound: CCOC(N)=O [Urethane, ethyl carbamate]
- Frequency of Mutant Spots Per Individual: Large Single (m = 5) (Drosophila melanogaster [7]; 40 wings): 10.50
- Frequency of Mutant Spots Per Individual: Small Single (m = 2) (Drosophila melanogaster [7]; 40 wings): 24.75
- Frequency of Mutant Spots Per Individual: Total Spots (m = 2) (Drosophila melanogaster [7]; 40 wings): 36.25
- Frequency of Mutant Spots Per Individual: Twin (m = 5) (Drosophila melanogaster [7]; 40 wings): 1.0
- Number of Spots: Large Single (m = 5) (Drosophila melanogaster [7]; 40 wings): 420
- Number of Spots: Small Single (m = 2) (Drosophila melanogaster [7]; 40 wings): 990
- Number of Spots: Total Spots (m = 2) (Drosophila melanogaster [7]; 40 wings): 1450
- Number of Spots: Twin (m = 5) (Drosophila melanogaster [7]; 40 wings): 40
- Statistical diagnosis: Large Single (m = 5) (Drosophila melanogaster [7]; vs DI): +
- Statistical diagnosis: Small Single (m = 2) (Drosophila melanogaster [7]; vs DI): +
- Statistical diagnosis: Total Spots (m = 2) (Drosophila melanogaster [7]; vs DI): +
- Statistical diagnosis: Twin (m = 5) (Drosophila melanogaster [7]; vs DI): +

Compound: Triton X-100
- % Hemolysis (hRBCs; positive control, run beside each Se form): 98 ± 0.052% and 100 ± 0.23%
